Experimental data from patent publication US8449635B2, “Abrasive articles and methods for making same” (Saint-Gobain Abrasives, Inc., priority 2007, dated 2013).

Test: Solubility of photoinitiator
Format: physicochemical

Solubility (wt %): <5 wt %
SMILES: Cc1cc(C)c(C(=O)P(=O)(C(=O)c2c(C)cc(C)cc2C)c2ccccc2)c(C)c1 [Irgacure 819, bis(2,4,6-trimethylbenzoyl) phenyl phosphine oxide]
